# Assay results from patent US20100330049A1, “METHOD FOR GENERATING ISLET BETA CELLS FROM DEDIFFERENTIATED EXOCRINE PANCREATIC CELLS” (Vrije Universiteit Brussel, priority 2008, published 2010).
# Tests used:
# Format in all cases: cell-based, rat
# [1] = test system: acinar cells; experiment: acinar-to-beta cell conversion in monolayer culture with differentiation factors (immunocytochemical cell counts); conditions: for toxic effects on the epithelial monolayers: Jagged1 2 μg/ml, Dll4 5 μg/ml, 3 days culture; for beta cell neogenesis (acino-insular conversion): exposure of EGF and LIF treated cells to Notch1 ligands; for expression of Ngn3, Pdx1 and insulin / reduction of the number of newly formed beta cells: ligands immobilized on culture plates, EGF/LIF-treated acinar cells; for expression of Pdx1 during 72 h exposure to EGF and LIF (FIG. 2C) / expression of insulin during 72 h exposure to EGF and LIF (FIG. 2E) / re-expression of Ngn3 during 72 h exposure to EGF and LIF (FIG. 2A): n=7, compared to EGF and LIF controls
# From the text: Male 10-12 week old Wistar rats (Charles River Laboratories) weighing 250-300 g were used for the isolation of cells from the pancreas. Pancreata were partially dissociated with collagenase and exocrine acini were purified by centrifugal elutriation as published before (Rooman et al., 2000 Diabetologia 43:907-914). All animal experimentation was approved by the Ethical Committee of the Free University of Brussels.
# Acinar cells were pre-cultured for 4 days in bacteriological Petri dishes (Nunc) in suspension culture in RPMI-1640 Glutamax-I medium supplemented with 10% fetal bovine serum (FBS, Invitrogen), penicillin (75 mg/l) (Continental Pharma) and antibiotics (Sigma, St Louis, Mo., USA). Geneticin Sulphate (50 μg/ml) (Sigma) was used to suppress fibroblast overgrowth in the culture. Medium was replaced daily during this pre-culture period. At the end of the pre-culture, cells were treated with alloxan (10 mM, Sigma) for 10 min at 37° C. to remove contaminating beta cells, and transferred to 24-well plates (Falcon, BD Biosciences) to form adherent cultures. Adherent monolayers were further cultured with RPMI supplemented with 1% FBS and antibiotics (controls). For growth factor stimulation of neogenesis this medium was supplemented with 50 ng/ml human recombinant epidermal growth factor (EGF) (Sigma,) and 40 ng/ml recombinant mouse leukemia inhibitory factor (LIF) (Sigma) (Baeyens et al. Diabetologia 48:49-57.). Stimulation of Notch signal transduction was performed using the recombinant human ligands Jagged1 (2 μg/ml, R&D Systems) and Dll4 (5 μg/ml, R&D Systems). For effective stimulation, the ligands were immobilized to the bottom of the multiwell plates prior to monolayer formation. Cell monolayers were analyzed after a culture period of 3 days in the latter media. […] Notch signaling inhibition was achieved using a recombinant form of the rat Notch1 extracellular domain (Notch1-EC, 10 μg/ml, R&D Systems). […] Proliferation was performed by bromo-deoxyuridin (BrdU) (Sigma) pulse labeling of 6 hours.
# Immunocytochemical staining of the monolayers was performed directly in the 24-well plates. For this purpose, the cell monolayers were fixed for 10 min with 4% buffered formaldehyde followed by 20 min methanol (−20° C.) for cell permeabilization. Tissues were fixed with the same fixative for 4 hours and processed for paraffin embedding. Paraffin sections were used for immunostaining as described (Bouwens et al. 1994 Diabetes 43:1279-1283). Primary antibodies used in this study are polyclonal anti-insulin (C. Van Schravendijk, VUB, Brussels) (Bouwens et al. 1994 Diabetes 43:1279-1283; Bouwens and De 1996. J. Histochem. Cytochem. 44:947-951), polyclonal anti-rat C-peptide-I (O. D. Madsen, Hagedorn Research Institute, Gentofte, Denmark) (Blume et al. 1992. Mol. Endocrinol. 6:299-307), polyclonal anti-Pdx1 (O. D. Madsen) (Rooman et al. 2000 Diabetologia 43:907-914), polyclonal anti-Ngn3 (Schwitzgebel et al. 2000. Development 127:3533-3542), monoclonal anti-cytokeratin-20 (CK20) (Novocastra) (Bouwens et al. 1994 Diabetes 43:1279-1283; Bouwens and De 1996 J. Histochem. Cytochem. 44:947-951), monoclonal anti-synaptophysin (Novocastra), polyclonal anti-MafA (Bethyl Laboratories) (Nishimura et al. 2006 Dev. Biol. 293:526-539), polyclonal anti-Glut2 (Wak-Chemie), polyclonal anti-Mist1 (SF Konieczny) (Pin et al. 2000 Anat. Rec. 259:157-167), polyclonal anti-luciferase (Promega Benelux B. V.), polyclonal anti-IAPP (Advanced Chemtech), polyclonal anti-ChromograninA (Tebu-Bio), anti-BrdU (MP Biomedicals) and polyclonal anti-α-amylase (Sigma). Secondary antibodies conjugated with fluorescein isothiocyanate, tetramethylrodamine isothiocyanate or Cy5 (Jackson Immunoresearch) were used as described previously (Gu et al., 2002 Development 129:2447-2457). DNA was visualized using Hoechst 33342 (Invitrogen).
# [2] = test system: Notch1 mRNA; experiment: knockdown efficiency of shRNA viruses, quantitative RT-PCR: Notch1 mRNA; conditions: corrected for actin, normalized to control virus Le-Scrambled-DsRed, n = 3
# From the text: (§1) Specific RNAi target sequences were developed using dedicated software available through the Whitehead Institute for Biomedical Research website (http://jura.wi.mit.edu/bio/) (Yuan et al. 2004 Nucleic Acids Res. 32:W130-W134). Corresponding oligo DNA molecules (Invitrogen) were cloned in the BglII and HindIII sites of the pSuper.basic vector (Oligoengine). Insert-containing clones were PCR-selected and sequenced. DNA from clones containing correct inserts was cut with EcoRI-ClaI, which released a DNA fragment containing the H1 promoter and the cloned oligo duplex, which was subsequently subcloned in the EcoRI-ClaI sites of the pTrip vector containing a DsRed reporter (Wiznerowicz and Trono 2003, J. Virol. 77:8957-8961). Screening for RNAi activity of the constructs was performed as follows: AR42J-B13 cells were plated at 70% confluency in 24 well plates at day 0. After allowing the cells to attach, 500 ng DNA of the appropriate pTrip constructs was transfected per well. After an additional 24 hours, cells were processed for quantitative RT-PCR analysis, in which 500 ng total RNA was used per condition.
# (§2) The data illustrated in Table 7 represent the efficiency of knockdown of the different shRNA viruses, measured by quantitative RT-PCR. All samples are corrected for RNA input (endogenous control: actin) and normalized to conditions transduced with control virus (Le-Scrambled-DsRed). […]
# [3] = test system: Hes1 mRNA; experiment: knockdown efficiency of shRNA viruses, quantitative RT-PCR: Hes1 mRNA; conditions: corrected for actin, normalized to control virus Le-Scrambled-DsRed, n = 3
# From the text: as §1, §2
Substance,toxic effects on the epithelial monolayers [1],beta cell neogenesis (acino-insular conversion) [1],"expression of Ngn3, Pdx1 and insulin [1]",reduction of the number of newly formed beta cells [1],expression of Pdx1 during 72 h exposure to EGF and LIF (FIG. 2C) [1],expression of insulin during 72 h exposure to EGF and LIF (FIG. 2E) [1],re-expression of Ngn3 during 72 h exposure to EGF and LIF (FIG. 2A) [1],Notch1 mRNA expression (Mean ± SEM) [2],Hes1 mRNA expression (Mean ± SEM) [3],higher number of insulin-positive cells ([1]; Notch1-EC added to EGF and LIF),"cells adopting a beta cell phenotype ([1]; acinar cell culture, 0.5% in control conditions)","proportion of cells positive for Ngn3, Pdx1 and insulin ([1]; excess Notch1-EC in culture medium with EGF and LIF)"
"Dll4: recombinant human Notch ligand, immobilized to the plate bottom",no toxic effects,near complete abrogation,strongly inhibited,80%,prevents this expression,prevents this expression,almost completely abrogates this pattern,,,,,
"Jagged1: recombinant human Notch ligand, immobilized to the plate bottom",no toxic effects,near complete abrogation,strongly inhibited,80%,prevents this expression,prevents this expression,almost completely abrogates this pattern,,,,,
"Le-Scrambled-DsRed: negative control RNAi lentivirus, shScrambled GGUAUCUACUAGAUGUACU (SEQ ID NO:3), DsRed reporter",,,,,,,,100.0 ± 0.0,100.0 ± 0.0,,,
"Notch1-EC: recombinant form of the rat Notch1 extracellular domain, Notch signaling inhibitor (R&D Systems)",,,,,amplifies the number of cells expressing Pdx1,amplifies the number of insulin-positive cells,enhances the potency of the differentiation factors,,,3 fold,more than 30%,marked increase
